Series [1] in a line: acute toxicity, LD 50, CD 1 mice. The settings on record: mouse, in vivo. In kind it is in vivo. The source says:
(§1) The acute toxicities of the compounds according to the invention have been determined on CD 1 (Charles RIVER) mice by intravenous and oral methods. The LD 50 of each compound has been calculated by the cumulative method of J. J. Reed and H. Muench, (Amer. J. Hyg., 1938, 27, 493).

The next series concerns dogs. In words: anti-emetic activity, apomorphine vomiting test on dogs. In kind it is in vivo. The settings on record: for ED50: Canis lupus familiaris, po, read-out: Anti-emetic activity on dogs ED 50. The text has this:
The anti-emetic properties of the compounds according to the invention have been shown by oral administration of apomorphine to dogs in the vomiting test according to G. Chen and C. J. Ensor, Pharmacol. exp. Therap., 98, 24 (1950).

A further series concerns rat. In words: catalepsy test, rat. Particulars: po, orally, read-out: Catalepsy AD 50. In kind it is in vivo, CD rat (Charles RIVER). The source says:
(§2) The neuroloptic effects of the compounds according to the invention have been shown with respect to the CD rat (Charles RIVER) taken orally in the catalepsy test according to S. COURVOISIER, R. DUCROT, and L. JULOU, in Psychotropic Drugs, S. GARATTINI and V. GHETTI, Edit.--ELSEVIER Publ. Co., AMSTERDAM, LONDON, NEW YORK, PRINCETON, 1957 P. 373 and also in the traction test of CD1 (Charles RIVER) mice taken orally S. COURVOISIER, Quart. Rev. Psychiat. Neurol. 17, 25 (1956), on the one hand and also in the spontaneous motility test.

Series [2] relates to mouse. The series can be described thus: traction test, mouse. In kind it is in vivo, CD1 (Charles RIVER) mice. Particulars: po, orally, read-out: Traction AD 50.
Text: as §2

Series [3] relates to mice. The series can be described thus: analgesic activity, painful abdominal torsions test with phenylbenzoquinone. In kind it is in vivo, CD 1 (Charles RIVER) mice. The settings on record: Mus musculus, po; mice, orally; read-out: Phenylbenzoquinone test on mice AD 50. The text has this: The analgesic properties of the products according to the invention have been shown with CD 1 (Charles RIVER) mice in the painful abdominal torsions test with phenylbenzoquinone according to the technique of E. Siegmund, R. Cadmus and Go.Lu--Proc. Soc. Exp. Biol. Med., 95, 729, (1957).

For series [4], the system named is serotonine plantar oedema. In words: anti-serotonine activity, serotonine plantar oedema. In kind it is in vivo, CD (Charles RIVER) rats. The settings on record: po; rat, orally; read-out: Serotonine plantar oedema AD 50. The source says:
(§3) The anti-serotonine activities of the compounds according to the invention have been shown by oral administration to the CD (Charles RIVER) rats using the technique of the serotonine plantar oedema (W. Theobald and R. Domenjoz--Arzneimittel Forsch, 8, 18, 1958 and with the CD 1 (Charles RIVER) mice using the technique known as "head twitch" according to S. J. Corne, R. W. Pickering and B. T. Warner, Brit. J. Pharmacol., 20, 106, (1963). The anti-serotonine activity has also been determined on the one hand on the tricoloured guinea-pig, given intravenously, according to a method derived from H. Konzet and R. Rossler, Arch. exp. Pathol, Pharmakol., 195, 71, (1940) and on the other hand in vitro with respect to the serotonine spasm of the isolated uterus of the rat according to the technique of A. Fanchamps, W. Doepfener, H. Weidman and A. Cerletti, Schw. Med. Worsch, 90, 1940, (1960).

In a further series the test system is head twitch. The series can be described thus: anti-serotonine activity, head twitch. In kind it is in vivo, CD 1 (Charles RIVER) mice. The settings on record: Mus musculus, po; mice, orally; read-out: "Head-twitch" AD 50.
Text: as §3

Another series has as its system serotonine bronchospasms. In words: anti-serotonine activity, serotonine bronchospasms. In kind it is in vivo, tricoloured guinea-pig. Particulars: Cavia porcellus, iv; guinea pig, intravenously; read-out: Serotonine bronchospasms ED 50.
Text: as §3

Series [5] relates to isolated duodenum of the rabbit (acetylcholine). The series can be described thus: spasmolytic effect on isolated duodenum, acetylcholine spasm. In kind it is cell-based. The settings on record: Oryctolagus cuniculus, read-out: Spasmolytic effects EC 50 with respect to acetylcholine. The text has this: (§4) Ges. Physiol., 102, 123, (1904) with respect to the spasms of the isolated duodenum of rabbits caused either by acetylchlorine for the spasmolytic nemotropes or by barium chloride for the spasmolytic musculotropes.

The test system of series [6] is isolated duodenum of the rabbit (barium chloride). The series can be described thus: spasmolytic effect on isolated duodenum, barium chloride spasm. In kind it is cell-based. The settings on record: Oryctolagus cuniculus, read-out: Spasmolytic effects EC 50 with respect to barium chloride.
Text: as §4

Series [7] concerns mice. In words: acute toxicity, LD 50, CD 1 mice. In kind it is in vivo. Particulars: intravenous.
Text: as §1

Series [8] deals with mouse. In words: spontaneous motility test (hypomotility), mouse. The settings on record: po, 1 h, orally, 60 minutes before measuring, 50% reduction of mean motility, first 5 minutes, read-out: Hypomotility ED 50. In kind it is in vivo, mice.
Text: as §2
This latter technique comprises keeping an account of the displacements of the mice by means of a floor of metal strips which enables the spontaneous activity of the animals to be recorded during the first 5 minutes subsequent to their being introduced into the measuring chamber. The products are dispensed 60 minutes before measuring is effected and 10 mice are used per dose. The results are expressed in ED 50 which represents the dose of substance capable of reducing the mean motility of the treated animals by 50% relative to that of the sample group which has only received the dispensing carrier.

The next series in a line: solubility. In kind it is physicochemical.
Setting [9] is: intravenous, read-out: Acute toxicity for mice LD 50, intravenous.
Where [10] appears, read: oral, read-out: Acute toxicity for mice LD 50, orally.

SMILES strings stand for the structures. Converted amounts (≈) assume the structure as drawn. Structures can show the parent of a compound that is named as a salt. Where two headings read alike, the source gives them in different places.

With `CCNc1nc(Cl)c(SC)c(N2CCN(C)CC2)n1` [Example 1, 2-Ethylamino-4-N-methyl-piperazino-6-chloro-5-methylthio-pyrimidine hydrochloride], the LD50 in series [1] (setting [9]) was 41 mg/kg; in series [1] (setting [10]) it was around 200 mg/kg. Moreover, the ED50 in the series on dogs was 0.35 mg/kg; in the series with rat, 85 mg/kg; in the series with mouse [2], above 35 mg/kg; with mice [3], 35 mg/kg; in [4], 160 mg/kg; in the series with head twitch it was 30 mg/kg. The ED50 in the series with serotonine bronchospasms stood at 6 mg/kg. Further, the EC50 came to 5 µg/mL in series [5] and 1.6 µg/mL in series [6].
With `CCCCN1CCN(c2nc(N(C)Cc3ccccc3)nc(Cl)c2SC)CC1` [Example 27, 2-(N-methyl N-benzylamino)-4-N-butylpiperazino-5-methylthio-6-chloropyrimidine hydrochloride], the “Acute toxicity for mice LD 50, intravenous” value (shortened to “Acute toxicity”) in the series on mice [7] is “insoluble”. The ED50 was 1.5 mg/kg in the series with dogs (dogs, orally, apomorphine); 160 mg/kg in the series on mouse [8]; 400 mg/kg in the series with mice [3]; above 400 mg/kg in [4]. In addition, the solubility in dimethylsulphoxide result in “solubility” (dimethylsulphoxide) is listed as “soluble”. Besides, the solubility in water result in “solubility” is “insoluble”.
For `CSc1c(Cl)nc(NC2CCCCC2)nc1N1CCN(C)CC1` [Example 23, 2-Cyclohexylamino-4-N-methylpiperazino-6-chloro-5-methylthiopyrimidine], in [1] (setting [9]), the LD50 was found to be 89 mg/kg. The ED50 in the series on rat is 300 mg/kg; with mouse [2] it was above 300 mg/kg; in the series on mouse [8] it was 220 mg/kg; in the series with mice [3] it was 100 mg/kg; in the series with head twitch it was 67 mg/kg; in the series on serotonine bronchospasms, 0.3 mg/kg. Also, the EC50 amounted to 70 µg/mL (≈ 197 µM) in series [5] and 0.25 µg/mL (≈ 0.702 µM) in series [6]. Also, the “solubility in dilute hydrochloric acid” value in the series “solubility” is recorded as “soluble”. Moreover, the “solubility in ethanol (alcohol)” value in “solubility” is listed as “soluble”. For the same compound, the solubility in water result in “solubility” is reported as “insoluble”.
For `CCOCCOc1nc(NC)nc(N2CCN(C)CC2)c1SC` [Example 20, 2-Methylamino-4-N-methylpiperazino-5-methylthio-6-β-ethoxyethoxy-pyrimidine hydrochloride], in series [1] (setting [10]), the LD50 is around 265 mg/kg. Also, the “Acute toxicity” value with mice [7] is “insoluble”.
Take `CSc1c(Cl)nc(Nc2ccccc2)nc1N1CCN(C)CC1` [Example 4, 2-phenylamino-4-N-methylpiperazino-6-chloro-5-methylthio-pyrimidine hydrochloride]: the LD50 in [1] (setting [10]) was around 600 mg/kg. For the same compound, in the series on mice [7], the “Acute toxicity” value was “insoluble”. In addition, the ED50 in the series on head twitch is 60 mg/kg.
As to `CSc1c(Cl)nc(N(C)C(C)=O)nc1N1CCN(C)CC1` [Example 16, 2-(N-methyl-N-acetyl)amino-4-N-methylpiperazino-5-methylthio-6-chloro-pyrimidine hydrochloride], the LD50 in series [1] (setting [10]) is around 525 mg/kg. Besides, the “Acute toxicity” value in the series with mice [7] is recorded as “insoluble”. For the same compound, the figures for the ED50 (in series [4]; with head twitch) were 100 mg/kg and above 100 mg/kg, respectively.
For the compound `CNc1nc(Cl)c(SC)c(N2CCNCC2)n1` [Example 10, 2-Methylamino-4-piperazino-6-chloro-5-methylthio-pyrimidine hydrochloride], the LD50 was 57 mg/kg in series [1] (setting [9]) and around 225 mg/kg in [1] (setting [10]). Further, the ED50 in the series with dogs turned out to be 0.07 mg/kg; with rat it was 75 mg/kg; in the series on mice [3], 65 mg/kg. Also, the “anti-vomiting ranking” value with dogs (comparison within the series, dogs) was “the most strong anti-vomiting agents”.
Turning to `C=CCNc1nc(Cl)c(SC)c(N2CCN(C)CC2)n1` [Example 21, 2-Allylamino-4-N-methylpiperazino-6-chloro-5-methylthio-pyrimidine], the LD50 in [1] (setting [9]) is 46 mg/kg; in series [1] (setting [10]), around 200 mg/kg. Besides, the ED50 is 0.8 mg/kg in the series on dogs (dogs, orally, apomorphine); 300 mg/kg in the series on rat; 28 mg/kg with mouse [8]; above 100 mg/kg in the series with mice [3]; above 100 mg/kg in series [4]; 20 mg/kg in the series on head twitch. Moreover, the ED50 in the series on serotonine bronchospasms is 0.01 mg/kg. The EC50 in series [5] stood at 1.6 µg/mL (≈ 5.1 µM); in series [6] it was 1 µg/mL (≈ 3.19 µM). The “solubility in dilute hydrochloric acid” value in the series “solubility” is on record as “soluble”. Besides, in the series “solubility”, the “solubility in ethanol (alcohol)” value is listed as “soluble”. Also, the solubility in water entry in the series “solubility” is recorded as “water-insoluble”.
As for `CSc1c(Cl)nc(N)nc1N1CCN(C)CC1` [Example 6, 2-Amino-4-N-methylpiperazino-6-chloro-5-methylthio-pyrimidine hydrochloride], the LD50 in series [1] (setting [9]) was 33 mg/kg; in series [1] (setting [10]), around 225 mg/kg. Moreover, the ED50 is 0.11 mg/kg with dogs; 100 mg/kg in the series with rat; above 100 mg/kg in the series with mouse [2]; 30 mg/kg in the series with head twitch; 1.2 mg/kg with serotonine bronchospasms.
In the case of `CCCCN1CCN(c2nc(N3CCOCC3)nc(Cl)c2SC)CC1` [Example 29, 2-Morpholino-4-N-butylpiperazino-5-methylthio-6-chloropyrimidine], the LD50 in [1] (setting [10]) is around 600 mg/kg. In addition, the “Acute toxicity” value in the series on mice [7] is “insoluble”. Besides, the ED50 is above 5 mg/kg with dogs (dogs, orally, apomorphine); 50 mg/kg in the series with mouse [8]; 55 mg/kg with mice [3]; 80 mg/kg in the series on head twitch. Moreover, in “solubility”, the “solubility in dilute methanesulphonic acid” value is given as “soluble”. Moreover, the “solubility in ethanol (alcohol)” value in “solubility” is “soluble”. The solubility in water result in “solubility” is on record as “insoluble”.
Consider `CC(=O)Nc1nc(Cl)c(C)c(N2CCN(C)CC2)n1` [Example 14, 2-Acetylamino-4-N-methylpiperazino-5-methyl-6-chloro-pyrimidine], for which, in series [1] (setting [10]), the LD50 was around 270 mg/kg. Further, the “Acute toxicity” value in the series with mice [7] is given as “insoluble”. Also, the ED50 in the series on dogs (dogs, orally, apomorphine) was 3.7 mg/kg; in the series on mice [3], 35 mg/kg.
As for `CSc1c(Cl)nc(NCc2ccccc2)nc1N1CCN(C)CC1` [Example 26, 2-Benzylamino-4-N-methylpiperazino-5-methylthio-6-chloropyrimidine], the LD50 in series [1] (setting [9]) is 85 mg/kg; in series [1] (setting [10]), around 525 mg/kg. For the same compound, the ED50 is around 2 mg/kg in the series on dogs (dogs, orally, apomorphine); 33 mg/kg with rat; 45 mg/kg in the series on mouse [2]; 20 mg/kg in the series with mouse [8]; 35 mg/kg with mice [3]; 17 mg/kg with head twitch. In the series with serotonine bronchospasms, the ED50 came out at 0.05 mg/kg. Moreover, the EC50 was determined as 0.2 µg/mL (≈ 0.55 µM) in series [5] and 0.17 µg/mL (≈ 0.467 µM) in series [6]. The “solubility in dilute hydrochloric acid” value in “solubility” is on record as “scarcely soluble”. Further, the “solubility in dilute methanesulphonic acid” value in “solubility” was “soluble”. Besides, the solubility in water entry in “solubility” was “soluble”.
